Consider three compounds from US11970583B2, “Therapeutic dendrimer” (Starpharma Pty Ltd., priority 2018, dated 2024).

Like-named read-outs stand apart in the source and are kept apart here.

For data set [1], the system named is CAPAN-1 tumour xenografts. The data set can be described thus: CAPAN-1 mouse xenograft pancreatic cancer model study. It is filed as in vivo, Female NOD-SCID Interleukin-2 receptor gamma chain null mice. The settings on record: dosing days 1, 8, 15. The procedure: Gemcitabine and ABRAXANE® were obtained from the Peter MacCallum Cancer Centre pharmacy, and were dissolved in saline solution immediately prior to dosing.
Female NOD-SCID Interleukin-2 receptor gamma chain null mice (aged 9 weeks) were inoculated subcutaneously on the flank with 5×10^6 CAPAN-1 cells in PBS:Matrigel (1:1).
Tumour growth data was analysed in GraphPad Prism for ANOVA followed by Dunnett's post ad-hoc test.

Data set [2] can be described thus: Single-dose toxicokinetic study, intravenous bolus, free (unconjugated) cabazitaxel in plasma. The settings on record: for Cmax free (unconjugated) Cabazitaxel: i.v. bolus; for % JEVTANA ® brand cabazitaxel dose: relative to JEVTANA 2.5 mg/kg. It is filed as in vivo, Sprague Dawley Crl:CD (SD) rats. Here is the method:
A single-dose toxicokinetic study of SPL-9048 and SPL-9005 was carried out by intravenous bolus injection in rats with a 21-day observation period. The control, 0.9% sodium chloride, was prepared and dispensed on the day of dosing. SPL-9048 and SPL-9005 were prepared at appropriate concentrations to meet dose level requirements. The dosing formulations were prepared and dispensed on each day of dosing and were used within 3 hours of preparation. The required amount of test article was weighed out and dissolved in a suitable volume of normal saline with gentle swirling and the pH was recorded. Cabazitaxel (JEVTANA® brand cabazitaxel) was prepared at appropriate concentration to meet dose level requirements. […] This stock solution was further diluted with normal saline to produce the final dosing concentration within 30 minutes.
The animals used were male and female Sprague Dawley Crl:CD (SD) rats. The animals were 10 to 14 weeks old and weighed between 327 and 565 g for males and 212 and 316 g for females at initiation of dosing. Animals were acclimated to their designated housing for at least 4 days before the first day of dosing. Animals were assigned to groups by a stratified randomization scheme designed to achieve similar group mean body weights. Males and females were randomised separately. Animals in poor health or at extremes of body weight ranges were not assigned to groups. PMI Nutrition International Certified Rodent Chow No. 5CR4 was provided ad libitum throughout the study except during designated procedures. The same diet in meal form was also provided, as needed. Municipal tap water, after treatment by reverse osmosis and ultraviolet irradiation, was freely available to each animal via an automatic watering system, except during designated procedures. Water bottles were also provided, as required. Animal were socially housed for psychological/environmental enrichment and were provided with items such as a chewing object, except when interrupted by study procedures/activities. Veterinary care was available throughout the course of the study.
The test and control articles were administered to the appropriate animals at the amounts indicated in the table below via a single intravenous (slow bolus) injection to the tail vein.
The dose volume for each animal was based on the most recent body weight measurement. The animals were temporarily restrained for dose administration and were not sedated. The doses were given using a syringe with attached needle. The first day of dosing for each group was designated as Day 1. The comparator dosing formulation (JEVTANA® brand Cabazitaxel) and test articles were maintained between 15 and 30° C. during dosing.
Toxicokinetic parameters were estimated using Phoenix pharmacokinetic software. A non-compartmental approach consistent with the intravenous route of administration was used for parameter estimation.

Data set [3] deals with DU145 tumour xenografts. The data set is described as follows: DU145 mouse xenograft prostate cancer model study. The settings on record: 25 mg/kg. Type of data set: in vivo, Male SCID mice. The procedure: Cabazitaxel was prepared fresh for each dosing day. […] Dosing solutions at 4.5 and 5.5 mg/mL were prepared from this working stock immediately prior to injection.
Male SCID mice (age 7-8) weeks were inoculated subcutaneously in the flank with 3×10^6 DU145 cells in PBS:Matrigel (1:1). Mice were weighed and tumours measured 2-3 times weekly using electronic callipers. […] Treatment groups were saline, Cabazitaxel (9 and 11 mg/kg), SPL-9048 (9 mg/kg) and SPL-9005 (25 mg/kg). […] The experiment was ended on Day 126, or earlier if an ethical endpoint was met. Survival curves were analysed using the Mantel Cox log rank test.
Tumour volumes were determined 2-3 times weekly and are expressed as mean tumour volume (±SEM).
Graphs are shown for each group until fewer than 6 animals remained in each group.

Data set [4] in a line: Separate tolerability study in female SCID mice. Type of data set: in vivo. The settings on record: 25 mg/kg Cabazitaxel equivalent.
Data set [5] in a line: Toxicology study in rats at 1 mg/kg (neutropenia). It is filed as in vivo.
Excerpt: References to amounts dosed in mg/kg for the dendrimeric compound are to the amounts of Cabazitaxel that may theoretically be released by the dendrimer.
The conditions of data set [6]: cited from earlier work.
The conditions of data set [7]: 2.5 mg/kg, by Day 2 through Day 7, males and females.
For data set [8], the system named is MDA-MB-231 tumour xenografts. The settings on record: 9 mg/kg i.v. days 1, 8, 15. Here is the method:
Cabazitaxel was prepared fresh for each dosing day.
Tumour volumes were determined twice weekly and were expressed as mean tumour volume (±SEM).
The data represent the mean percent weight change from baseline (Day 1) for each group; bars SEM.

For data set [9] the following is noted: cited from earlier work. The source holds these as a separate data set.

By Cmax is commonly meant the maximum level reached in the sampled fluid or tissue. By Tmax is commonly meant the time at which the peak concentration occurs.

Take `Nc1ccn([C@@H]2O[C@H](CO)[C@@H](O)C2(F)F)c(=O)n1` [Gemcitabine, reference compound]: the “Tumour Growth inhibition (%)” value in data set [1] (Day 37, Gemcitabine 80 mg/kg i.p., ABRAXANE 40 mg/kg i.v., SPL9048 […] i.v.) is on record as 40%. The “anti-tumour efficacy (mean tumour volume, FIG. 7)” value in data set [1] (study to day 107) is given as “Neither Gemcitabine or ABRAXANE® were effective in this model”.

For the compound “BHALys[Lys]32[α-TDA-Cabazitaxel]32 †[ε-PEG˜2100]32‡ [SPL9005]”, in [2] (1 mg/kg drug eq., males), the “AUC0-t free Cabazitaxel” value was found to be 202.94 ng·h/mL, the “Cmax free (unconjugated) Cabazitaxel” value is reported as 4.41 ng/mL and the “% JEVTANA ® brand cabazitaxel dose” value is 30%. Moreover, in [2] (2.5 mg/kg drug eq., males), the “AUC0-t free Cabazitaxel” value came to 548.96 ng·h/mL, the “Cmax free (unconjugated) Cabazitaxel” value stood at 9.29 ng/mL and the “% JEVTANA ® brand cabazitaxel dose” value was found to be 81%. Also, the “male mice recovered to +5/10% starting weight” value in data set [3] (after day 40) is listed as 2/10. For the same compound, the “male mice with >20% weight loss” value in data set [3] (after third dose, approx. day 25) is 8/10. Further, in data set [4], the mean weight loss result is reported as “below 10%”.

Consider `CO[C@H]1C(=O)[C@]2(C)[C@@H](OC)C[C@H]3OC[C@@]3(OC(C)=O)[C@H]2[C@H](OC(=O)c2ccccc2)[C@]2(O)C[C@H](OC(=O)[C@H](O)[C@@H](NC(=O)OC(C)(C)C)c3ccccc3)C(C)=C1C2(C)C` [Cabazitaxel], for which the “rebound after neutropenia at day 14” value in data set [5] is given as “substantial rebound at day 14”. Also, in data set [5] (male and female rats), the “neutropenia (FIG. 6), day 7 in particular” value was “dip in values”. The “Cabazitaxel measurability in plasma over time” value in data set [2] (2.5 mg/kg) is “not measurable more than 24 hours after”. Besides, in [2] (2.5 mg/kg drug eq., males), the “AUC0-t free Cabazitaxel” value amounted to 679.99 ng·h/mL, the “Cmax free (unconjugated) Cabazitaxel” value is 801.05 ng/mL and the “% JEVTANA ® brand cabazitaxel dose” value was determined as 100%. Besides, the Cmax in [2] (Sprague Dawley Crl:CD (SD), rat, plasma, intravenous, 2.5 mg/kg) amounted to 801 ng/mL. Moreover, the Tmax in data set [2] (male, Sprague Dawley Crl:CD (SD), rat, plasma, intravenous, 2.5 mg/kg, males) is 2 min. In [6] (25-mg/m2 dose), the “patients with febrile neutropenia” value is on record as 4% and the “patients with prolonged grade 4 neutropenia” value is listed as 4%. Also, in data set [6] (25-mg/m^2 dose), the AUC concentration is reported as 642±320 mcg/L per hour and the Cmax was 535 ± 305 ng/mL. For the same compound, in data set [6] (in vivo), the “dose eliminated within 2 weeks” value is listed as “Approximately 80%”; the patients with diarrhea was 56%; the patients with fatigue is given as 36%; the “patients with grade 1 hypersensitivity reactions (flushing, dizziness, chest tightness)” value is given as 8%. For the same compound, in data set [6] (in vivo), the patients with nausea is on record as 40%, the patients with neurotoxicity is given as 36% and the patients with vomiting is listed as 16%. In [6] (triphasic model, plasma), the “intermediate elimination phase, average t½” value is 78 ± 36 min; the “prolonged terminal elimination phase, average t½” value was 77.3 ± 45.5 h; the “rapid initial elimination phase, average terminal half-life t½” value is 2.6 ± 1.4 min. In [7], the “test article related hematology changes” value is given as “generally greater”. For the same compound, in data set [8], the “tumours reaching ethical tumour volume endpoint by day 98” value is given as 9 of 10. The “mean Cmax” value in data set [9] (25 mg/m2, 1-hour IV, n=67) is 226 ng/mL. In addition, in data set [9] (25 mg/m2, 1-hour IV), the “Tmax (end of infusion)” value is 60 min and the “mean AUC” value is on record as 991 ng·h/mL. Further, in data set [9] (in vivo), the “patients with Grade 3 or 4 febrile neutropenia” value was 8% and the “patients with neutropenia (all grades)” value is on record as 94%.
